Values joined by “and” are separate entries in the source; they are usually repeats but may differ in a detail not shown here. Equal entries are not always repeated.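 The compound was tested at five concentrations on cells cultured in 96-well plates, with a 48-hour exposure period. GI50 is the concentration that inhibits growth by half. TGI is the concentration that stops growth completely.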
Experiments:
Test in all cases: growth of human tumour cells (NCI), 48 h
HCT-15 colon = tested on: HCT-15 colon
NCI-H522 lung = tested on: NCI-H522 lung
IGROV1 ovarian = tested on: IGROV1 ovarian
SN12C renal = tested on: SN12C renal
HT29 colon = tested on: HT29 colon
SF-539 CNS = tested on: SF-539 CNS
SR leukemia = tested on: SR leukemia
NCI-H460 lung = tested on: NCI-H460 lung
OVCAR-8 ovarian = tested on: OVCAR-8 ovarian
SNB-19 CNS = tested on: SNB-19 CNS

Compound	TGI (HCT-15 colon)	TGI (NCI-H522 lung) [µM]	TGI (IGROV1 ovarian)	TGI (SN12C renal)	TGI (HT29 colon)	TGI (SF-539 CNS)	TGI (SR leukemia) [µM]	TGI (NCI-H460 lung)	TGI (OVCAR-8 ovarian)	TGI (SNB-19 CNS) [µM]	GI50 (HCT-15 colon) [µM]	GI50 (NCI-H522 lung) [µM]	GI50 (IGROV1 ovarian) [µM]	GI50 (SN12C renal) [µM]	GI50 (HT29 colon) [µM]	GI50 (SF-539 CNS) [µM]	GI50 (SR leukemia) [µM]	GI50 (NCI-H460 lung) [µM]	GI50 (OVCAR-8 ovarian) [µM]	GI50 (SNB-19 CNS) [µM]
O=NN(Cc1ccc(Cl)cc1)C(C(=O)O)c1ccccc1 (stereo not given)	> 100 µM	> 100	> 100 µM	> 100 µM	> 100 µM	> 100 µM	> 100	> 100 µM	> 100 µM	> 100										
Cc1cc(I)cc(CNCCCN2CCSCC2)c1O	35.9 µM	36.5	29.7 µM	> 100 µM	27.8 µM	30.8 µM	28.5	29.5 µM	34 µM	41	17.7	18.4	13.8	41.4	14	16.8	10.4	14.3	17.4	18.4
CCc1c(Oc2ccc(C(C)=O)cc2)c2ccccc2[nH]c1=O	96.8 µM	> 68.3	> 100 µM	61.8 µM	> 100 µM	38.6 µM	> 100	65.7 µM	53.4 µM	> 100	16.4	14.1	28.8	16.6	26.9	15.7	9.09	18.7	19.1	30.7
COc1cccc(/C=N/NC(=O)c2ccccc2Nc2ccnc(C(F)(F)F)c2)c1O	> 100 µM	46.1	0.0745 µM	> 73.7 µM	> 100 µM	11.3 µM	0.417	8.26 µM	> 38 µM	> 100	0.201	0.521	0.0234	0.783	4.06	0.583	0.0477	0.262	0.319	2.41
CCOc1cccc(/C=N/NC(=O)c2ccccc2Nc2ccnc(C(F)(F)F)c2)c1O	> 100 µM	> 63	0.243 µM	> 94.9 µM	> 100 µM	6.33 µM	0.363	7.05 µM	> 100 µM	> 100	0.195	3.47	0.0425	0.989	3.79	0.501	0.0576	0.272	0.449	2.04
O=C(c1ccco1)c1nc2ccc(C(F)(F)F)cc2[n+]([O-])c1C(F)(F)F	> 100 µM	> 100	> 100 µM	> 100 µM	> 100 µM	> 100 µM	57.4	> 100 µM	> 100 µM	> 100	> 100	> 100	35.6	> 100	29.9	54	20.8	44	50	36.4
COC(=O)c1cc2c3ccccc3[nH]c2c2ncccc12	> 100 µM	> 100	> 100 µM	> 100 µM	> 100 µM	> 100 µM	> 100	> 100 µM	> 100 µM	> 100	21.4	86	2.09	> 100	59.2	17.4	66.4	51.4	61.2	66.5
NCC(=O)NS(=O)(=O)OC[C@H]1O[C@@H](n2cnc3c(N)ncnc32)[C@H](O)[C@@H]1O	10.1 µM	3.85	7.68 µM	4.6 µM	7.46 µM	3.58 µM	> 100	10.1 µM	7.59 µM	1.48	2.92	1.75	3.04	0.563	2.92	1.43	0.936	3.23	2.48	0.378
N#C/C(=C/c1ccsc1)C(=O)c1ccccc1	> 100 µM	> 100		> 100 µM	> 100 µM	> 100 µM	> 100	> 100 µM	> 100 µM	> 100										
COc1ccc2[nH]c3c(C)c4c(c(C)c3c2c1)CN(C)CC4	35.3 µM	33.4	35.9 µM	30.6 µM	20.2 µM	29.8 µM	83.8	24.8 µM	25.8 µM	48.5										
COc1cc(OC)cc(-c2ccc(-c3ccc(C(=N)N)o3)o2)c1	10.4 µM	7.4	10.4 µM	5.15 µM	9.04 µM	3.44 µM	4.36	5.17 µM	14 µM	10.6	3.18	2.3	2.97	2.38	2.77	1.83	1.68	2.32	3.75	3.02
CCOC(=O)/C=C(/C(=O)OCC)n1cc(Cl)c(=O)n(CC(=O)OCC)c1=O	10.5 µM and 40.1 µM	2.88	9.25 µM and 37.1 µM	10.9 µM and 32.7 µM	9.38 µM and 52 µM	9.69 µM and 32.7 µM	25	25 µM and > 100 µM	8.43 µM and 28.4 µM	> 100	19		17.8		22.5	16.9		35.1	12.6	32.7
O=c1oc2ccc(F)cc2c(=O)n1-c1ccc(F)cc1F	17.5 µM	12.3	> 100 µM	13.7 µM	49.8 µM	13.8 µM	> 100	62.4 µM	91.6 µM	> 100	3.36	2.61	3.01	2.72	3.91	3.31	3.69	3.42	3.39	3.5
COc1cnc2cc(C(=O)O)c3c([N+](=O)[O-])cccc3c2c1	> 100 µM	> 100	> 100 µM	> 100 µM	> 100 µM		> 100	> 100 µM	> 100 µM	> 100										

— PubChem BioAssay (NCI)
